Measured values as given in patent US9388126B2, “Sigma receptor ligands and methods of modulating cellular protein homeostasis using same” (Drexel University, priority 2012, dated 2016).
Where “and” joins values, the source holds several entries; their conditions need not be identical. Identical values can stand only once.

Columns and labels:
[1] = test system: T47D and MDA-MB-468 cells; experiment: Cell cycle profile (G1, S, G2 phase cells); assay type: cell-based, human; conditions: 24 hours; IPAG 1 μM (T47D) or 10 μM (MDA-MB-468); (+)-SKF-10047 10 μM
Method: FIG. 30, comprising FIGS. 30A-30B, illustrates that Sigma1 antagonists mediate cell cycle arrest. […] FIG. 30A is a graph illustrating the percentage of G1, S, and G2 phase cells in T47D cells treated for 24 hours with DMSO (vehicle control), 1 μM IPAG (Sigma1 antagonist), or 10 μM (+)SKF-10047 (Sigma1 agonist). FIG. 30 B is a graph illustrating the percentage of G1, S, and G2 phase cells in MDA-MB-468 cells treated for 24 hours with DMSO (vehicle control), 10 μM IPAG (Sigma1 antagonist), or 10 μM (+)-SKF-10047 (Sigma1 agonist).

[2] = biological target: Sigma1 (Homo sapiens, UniProt Q99720); conditions: read-out: Ki, affinity for the Sigma1; cited from earlier work
Sequence of Sigma1 (Q99720 whole entry): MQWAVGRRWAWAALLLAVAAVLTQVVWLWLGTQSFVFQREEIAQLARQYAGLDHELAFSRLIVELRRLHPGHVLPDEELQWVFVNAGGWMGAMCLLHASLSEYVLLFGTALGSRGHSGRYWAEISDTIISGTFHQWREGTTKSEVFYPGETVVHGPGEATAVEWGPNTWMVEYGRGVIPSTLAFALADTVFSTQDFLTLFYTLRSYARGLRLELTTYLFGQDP

[3] = test system: T-47D breast adenocarcinoma cells; experiment: Cell size by flow cytometry (mean FSC-H, G1 phase); assay type: cell-based, human; conditions: 10 μM
Method: FIG. 31A is a differential interference contrast (DIC) image of MDA-MB-468 breast adenocarcinoma cells treated for ˜20 hours with DMSO (drug vehicle control), 10 μM IPAG (antagonist) or 10 μM PRE084 (agonist). A twenty-micron bar is shown in each image. Data are presented as mean±SEM. FIG. 31B is a graph illustrating the finding that IPAG diminished the mean cell size (FSC-H) of MDA-MB-468 breast tumor cells in a time-responsive manner. The mean FSC-H of 370±5 at to decreased to 323±4 after 24 hours of IPAG treatment and to 267±2 after 48 hours of treatment. Two-tailed t-tests were performed to determine statistical significance. For IPAG treatment compared to control (DMSO) and Sigma agonists (SKF and PRE084), P=0.0002 at d1 and P=0.00013 at d2. Data were generated from three to five independent determinations for each time-point. Flow cytometry was used to measure mean cell size (mean FSC-H) of T-47D breast adenocarcinoma cells. FIG. 31C is a bar graph illustrating T-47D cells treated for 24 hours with 10 μM indicated Sigma ligand. IPAG and BD 1047 (Sigma1 antagonists) diminished cell size from a mean FSC-H of 412±5 for control (DMSO) cells versus 341±7 and 381±8 for IPAG and BD1047 treated cells, respectively. […] Data represent 5 independent determinations (*P<0.05, ***P<0.001). FIG. 31D is a bar graph illustrating how IPAG (antagonist) decreases cell size in a dose responsive manner. T-47D were treated for 24 h with 1 and 10 μM IPAG, and mean FSC-H was measured. FIG. 31E is a graph illustrating that T47D cell size decreases over time. T-47D cells were treated for a total of 48 hours with 10 μM of the indicated Sigma ligands. […] Neither Sigma1 agonist, (+)-SKF10047 and PRE084, altered cell size. […] Two-tailed t-tests were performed to determine statistical significance. For IPAG treatment compared to control (DMSO) and Sigma1 agonists (SKF and PRE084), P=0.0002 at d1 and P<0.0001 at d2. For FIGS. 31B-31E, the mean FSC-H was determined for each cell cycle population (i.e., G1, S, G2/M), and data is shown for G1 phase cells. S and G2/M phase cells responded similarly (data not shown).

[4] = test system: PC3 and DU145 PCa cells; experiment: UPR induction in prostate cancer cell lines; assay type: cell-based, human; conditions: preliminary experiments
Excerpt: FIG. 15 is an image of an immunoblot illustrating induction of UPR in a prostate cancer cell line. […] P-IRE1α indicates phosphorylated IRE1α. Similar results were obtained with DU145 prostate cancer cells.
This might be due to an accumulation of ubiquitylated proteins or due to an increase in ubiquitin ligase activity. Progression of the ER stress response could be monitored by a set of markers, many of which have been directly linked to the UPR. The most extensively investigated sensors that initiate the UPR are IRE1α, PERK, and ATF6, which transduce signals to a cascade of effectors. Many of these UPR 4 effectors function as transcription factors that induce the synthesis of ER chaperones, such as GRP78/BiP and GRP94, involved in maintaining protein homeostasis.

[5] = test system: MDA-MB-468 (GFP-LC3) cells; experiment: GFP-LC3 punctae (autophagosome formation) microscopy assay; assay type: cell-based, human; conditions: for punctae per cell / mean number of punctae per cell: 24 hours; for autophagosomes per cell / GFP-LC3 punctae per cell: 10 μM for 20 hours
Method: The human GFP-LC3 expression plasmid, pEGFP-LC3 (a gift from Drs. Grazia Ambrosini and Gary K. Schwartz, MSKCC), was stably transfected into MDA-MB-468 and selected with 0.5 mg/ml G418 sulfate. Stable populations were generated and compared to parental MDA-MB-468 for Sigma1 expression and autophagic and growth inhibitory response to Sigma ligands. GFP-LC3 translocation (punctae formation) was assessed by microscopy in MDA-MB-468 (GFP-LC3) stable cell populations. For microscopy-based experiments, cells were seeded onto Lab-Tek II glass chamber slides (Nalge Nunc International). […] Images of GFP-LC3 punctae were acquired with a Zeiss Axioplan 2 Imaging widefield microscope using Axiovision LE software. Punctae were counted using the spot quantitation program in the Fluoro-Chem software package (Alpha Innotech) and confirmed in parallel by manual counting. Autophagosome formation in MDAMB-468 (GFP-LC3) cells was quantitated as the mean number of GFP-LC3 punctae per GFP positive cell.
Initially, an established immunoblot-based assay to detect microtubule associated protein light chain 3 (LC3) lipidation was used to test for the activation of autophagy. […] Since transient transfections can produce spurious GFP-LC3 aggregates, stable GFP-LC3 transfected populations of MDA-MB-468 (GFP-LC3) were generated. […]

[6] = test system: MDA-MB-468 cells; experiment: Cell death by trypan blue exclusion; assay type: cell-based, human
Method: Trypan blue exclusion and propidium iodide staining were used to quantify general cell death and the presence of apoptotic cell death was confirmed by immunoblot. The percentage of dead cells in a given population was determined by quantifying the number of trypan blue positive (dead) cells and dividing by the total number of trypan blue positive and negative cells.

Question: Which cell cycle profile [1] does the source give for N=C(Nc1ccc(I)cc1)NC1C2CC3CC(C2)CC1C3 (centres unmarked) [IPAG, 1-(4-iodophenyl)-3-(2-adamantyl)guanidine] here?
Answer: accumulation of breast adenocarcinoma cells in G1 phase of the cell cycle

Question: What about the Ki [2] of the same molecule?
Answer: 0.005 ± 0.002 µM

Question: What about the “mean FSC-H (relative cell size)” value ([3]; 24 hours, control 412±5) of the same molecule?
Answer: 341±7 and 331±3

Question: What about the “mean FSC-H (relative cell size)” value ([3]; 48 hours (d2)) of the same molecule?
Answer: 300±2

Question: What about the “IRE1α and BiP levels” value [4] of the same molecule?
Answer: salient induction of IRE1α and BiP levels

Question: And the punctae per cell ([5]; 10 μM IPAG alone, 3-MA experiment)?
Answer: 23±2 punctae per cell

Question: And the punctae per cell ([5]; 10 μM IPAG with addition of 3-MA (5 mM))?
Answer: 12±1 punctae per cell

Question: And the autophagosomes per cell ([5]; ATF4 knocked down)?
Answer: 5±1 autophagosomes per cell

Question: And the autophagosomes per cell ([5]; IRE1α knocked down)?
Answer: 9±2 autophagosomes per cell

Question: What about the “GFP-LC3 punctae per cell” value ([5]; Sigma1-knockdown cells) of the same molecule?
Answer: 10±2 punctae per cell

Question: And the “GFP-LC3 punctae per cell” value ([5]; control siRNA transfected cells)?
Answer: 28±4 punctae per cell

Question: And the autophagosomes per cell ([5]; no UPR knockdown)?
Answer: 24±2 autophagosomes per cell

Question: And the “mean number of punctae per cell” value ([5]; 10 μM, knockdown of Beclin1)?
Answer: 6±1 punctae per cell

Question: What about the “mean number of punctae per cell” value ([5]; 10 μM, without Beclin1 knockdown) of the same molecule?
Answer: 28±3 punctae per cell

Question: And the “time at which significant formation of autophagosomes was detected” value ([5]; 10 μM, GFP-LC3 punctae and LC3II immunoblot)?
Answer: 6 to 12 h

Question: What about the EC50 ([5]; Homo sapiens, MDA-MB-468, 24 hours of treatment, read-out: potency (EC50±S.E.M.) of autophagosome formation (GFP-LC3 punctae)) of the same molecule?
Answer: 9 ± 3 µM

Question: What about the autophagosome formation ([5]; IPAG alone, JNK inhibitor experiment) of the same molecule?
Answer: 23±2

Question: And the autophagosome formation ([5]; IPAG and JNK inhibitor SP600125)?
Answer: 7±1

Question: What about the “concentration at which precipitous cell death occurred” value ([5]; following 24 hours of treatment) of the same molecule?
Answer: 40 µM

Question: What about the “dead cells per well” value ([6]; 10 μM, 24 hours, with 3-MA (5 mM) or siRNA knockdown of Beclin1) of the same molecule?
Answer: over 33%

Question: What about the “proportion of dead cells (apoptotic cell death)” value ([6]; 10 μM, 48 hours of continuous treatment) of the same molecule?
Answer: 30±2%

Question: What about the “proportion of dead cells” value ([6]; 24 hours, IRE1α knockdown) of the same molecule?
Answer: 47±8%

Question: What about the “dead cells per well” value ([6]; 24 hours, combined treatment with IPAG and 3-MA) of the same molecule?
Answer: 24±5%

Question: What about the “proportion of dead cells” value ([6]; 24 hours, control siRNA transfected cells) of the same molecule?
Answer: 9±4%

Question: What about the “proportion of dead cells” value ([6]; by 72 hours) of the same molecule?
Answer: > 75%

Question: And the “dead cells per well” value ([6]; knockdown of ATF4)?
Answer: 30±9%
